Laboratory results reported in US12509437B2, “Substituted thiophene carboxamides and derivatives thereof as microbicides” (Bayer Aktiengesellschaft, priority 2019, dated 2025).
Marks after values point to notes of the source that are not given here.

Assays:
[1] = test system: Pseudomonas syringae pv. tomato; test: In vivo preventive test on Pseudomonas syringae pv. tomato (bacterial speck on tomato); conditions: sprayed 72 hours before inoculation, evaluated 5 or 6 days after inoculation, read-out: efficacy; for pest or weed control at 500 ppm: 500 ppm of active ingredient; for pest or weed control at 125 ppm: 125 ppm of active ingredient
Experimental: (§1) The tested active ingredients were prepared by homogenization in a mixture of acetone/Dimethyl sulfoxide/Tween®, and then diluted with water to obtain the desired active material concentration.
The young plants of tomato were treated by spraying the active ingredient prepared as described above. Control plants were treated only with an aqueous solution of acetone/Dimethyl sulfoxide/Tween®.
After 72 hours, the plants were contaminated by spraying the leaves with an aqueous bacteria suspension of Pseudomonas syringae pv. tomato. The contaminated tomato plants were incubated for 4 days in saturated atmosphere at 22° C. day/20° C. night−70% HR and then for 1 or 2 days at 22° C. day/20° C. night at 70-80% relative humidity.
The test was evaluated 5 or 6 days after the inoculation. 0% means an efficacy which corresponds to that of the control plants while an efficacy of 100% means that no disease was observed.

[2] = test system: Xanthomonas campestris pv. campestris; test: In vivo preventive test on Xanthomonas campestris pv. campestris (black rot on cabbage); conditions: sprayed 72 hours before inoculation, evaluated 8 or 10 days after inoculation; for pest or weed control at 31 ppm / pest or weed control at 500 ppm / pest or weed control at 125 ppm: Xanthomonas campestris, read-out: efficacy; for pest or weed control at 500 ppm: 500 ppm of active ingredient; for pest or weed control at 125 ppm: 125 ppm of active ingredient
In short: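 Young cabbage plants sprayed preventively with compound formulated in acetone/DMSO/Tween and diluted in water, then inoculated 72 h later with a bacterial spray. Kept at 27° C, 95% relative humidity; disease scored after 8 or 10 days as % efficacy versus solvent-treated controls (0% = control, 100% = no disease).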

[3] = test system: Colletotrichum lindemuthianum; test: In vivo preventive test on Colletotrichum lindemuthianum (Anthracnose on bean); conditions: sprayed 72 hours before inoculation, evaluated 6 days after inoculation; for pest or weed control at 500 ppm: 500 ppm of active ingredient
Experimental: as §1
The young plants of bean were treated by spraying the active ingredient prepared as described above. Control plants were treated only with an aqueous solution of acetone/Dimethyl sulfoxide/Tween®.
After 72 hours, the plants were contaminated by spraying the leaves with an aqueous suspension of Colletotrichum lindemuthianum spores. The contaminated bean plants were incubated for 24 hours at 20° C. and at 100% relative humidity and then for 5 days at 20° C. and at 90% relative humidity.
The test was evaluated 6 days after the inoculation. 0% means an efficacy which corresponds to that of the control plants while an efficacy of 100% means that no disease was observed.

[4] = test system: Peronospora parasitica; test: In vivo preventive test on Peronospora parasitica (Crucifer downy mildew) on cabbage; conditions: Hyaloperonospora parasitica, 120 h, sprayed 72 hours before inoculation, evaluated 5 days after inoculation, read-out: efficacy; for pest or weed control at 125 ppm: 125 ppm of active ingredient; for pest or weed control at 31 ppm: 31 ppm of active ingredient; for pest or weed control at 500 ppm: 500 ppm of active ingredient
In short: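 Young cabbage plants were sprayed with compound in aqueous acetone/DMSO/Tween, then inoculated 72 h later with P. parasitica spores and held 5 days at 20 °C, 100% RH. Efficacy scored 5 days post-inoculation: 0% equals solvent-treated controls, 100% means no disease.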

[5] = test system: Uromyces appendiculatus; test: In vivo preventive test on Uromyces appendiculatus (bean rust); conditions: 240 h, sprayed 72 hours before inoculation, evaluated 10 days after inoculation, read-out: efficacy; for pest or weed control at 31 ppm: 31 ppm of active ingredient; for pest or weed control at 500 ppm: 500 ppm of active ingredient; for pest or weed control at 125 ppm: 125 ppm of active ingredient
In short: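 Young bean plants sprayed with compound in acetone/DMSO/Tween diluted in water, then inoculated 72 h later with spore suspension. Incubated 24 h at 20° C., 100% RH, then 9 days at 20° C., 70-80% RH. Efficacy scored 10 days post-inoculation, 0% = untreated-control level, 100% = no disease.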

[6] = test system: Pseudomonas syringae pv. tomato; test: Pseudomonas syringae pv. tomato in vitro cell test; type: cell-based; conditions: 20 ppm of active ingredient, 24 h of incubation, read-out: efficacy (inhibition of bacteria growth; no direct activity)
In short: (§2)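 Bacteria from liquid pre-culture diluted to set OD in LB broth and exposed to compounds dissolved in DMSO (final ≤1%). After 24 h, growth read by absorbance; inhibition derived relative to compound-free control wells.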

[7] = LogP by HPLC on reversed phase columns (EEC directive 79/831 Annex V.A8); type: physicochemical; conditions: reversed phase HPLC columns; method [a]
In short: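 Reversed-phase HPLC, calibrated with straight-chain alkan-2-ones (C3–C16) of known LogP; values by linear interpolation of retention times between successive alkanones. Multiple values from one method are joined by "+"; lambda-max taken from 200–400 nm UV spectra at chromatographic peaks.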

[8] = test system: Colletotrichum lindemuthianum; test: Colletotrichum lindemuthianum in vitro cell test; type: cell-based; conditions: 144 h, 6 days incubation, read-out: efficacy (inhibition of fungal growth; no direct activity); for inhibition at 5 ppm: 5 ppm of active ingredient; for inhibition at 20 ppm: 20 ppm of active ingredient
In short: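 C. lindemuthianum spore suspension grown in liquid glucose/peptone/yeast-extract medium with compound (final DMSO ≤1%). After 6 days, mycelial growth measured by absorbance; inhibition calculated versus fungicide-free control wells.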

[9] = test system: Alternaria alternata; test: Alternaria alternata in vitro cell test; type: cell-based; conditions: 120 h, 5 days incubation, read-out: efficacy (inhibition of fungal growth; no direct activity); for inhibition at 5 ppm: 5 ppm of active ingredient; for inhibition at 20 ppm: 20 ppm of active ingredient
In short: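 A. alternata spores in glucose/peptone/yeast-extract liquid medium were exposed to DMSO-solubilized compound (final DMSO ≤1%). After 5 days incubation, mycelium growth read spectrometrically; inhibition derived from absorbance relative to fungicide-free control wells.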

[10] = test system: Xanthomonas campestris pv. campestris; test: Xanthomonas campestris pv. campestris in vitro cell test; type: cell-based; conditions: 24 h of incubation, read-out: efficacy (inhibition of bacteria growth; no direct activity); for inhibition at 5 ppm: 5 ppm of active ingredient; for inhibition at 20 ppm: 20 ppm of active ingredient
In short: as §2

[11] = test system: salicylate responsive promoter sequence of the PR1 (pathogenesis-related protein I) gene (AT2G14610); test: Induction of defense gene expression in Arabidopsis thaliana (PR1 promoter-GFP reporter plants); type: in vivo; conditions: 72 h, 3rd day after spraying, mock treated leaves set as 1.00, read-out: relative fluorescence value
In short: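 Transgenic A. thaliana carrying GFP under the salicylate-responsive PR1 promoter, grown five days, then sprayed with compounds. Whole-plant fluorescence imaged and quantified on day 3 post-spray, expressed relative to mock-treated leaf background set at 1.00.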

[12] = Colletotrichum lindemuthianum, 144 h, 125 ppm of active ingredient, read-out: efficacy
[13] = Colletotrichum lindemuthianum, 144 h, read-out: efficacy

SMILES	pest or weed control at 500 ppm [1] [%]	pest or weed control at 31 ppm ([2]; 31 ppm of active ingredient) [%]	pest or weed control at 500 ppm [2] [%]	pest or weed control at 125 ppm [3, 12] [%]	pest or weed control at 500 ppm [3, 13] [%]	pest or weed control at 125 ppm [4] [%]	pest or weed control at 31 ppm [5] [%]	pest or weed control at 500 ppm [5] [%]	pest or weed control at 125 ppm [5] [%]	pest or weed control at 31 ppm [4] [%]	inhibition at 20 ppm [6] [%]	chromatographic logP [7]	inhibition at 5 ppm [8] [%]	inhibition at 5 ppm [9] [%]	pest or weed control at 500 ppm [4] [%]	inhibition at 5 ppm [10] [%]	inhibition at 20 ppm [10] [%]	fold induction at 75 ppm [11]	fold induction at 300 ppm [11]	pest or weed control at 125 ppm [2] [%]	also measured
O=C(NC1(C(=O)O)CC1)c1cc(Br)c(Br)s1 [CMP1, reference compound]	0	10	0	–	–	–	–	–	–	–	–	–	–	–	–	–	–	–	–	–	efficacy ([2]; 31 ppm of active ingredient): 10* %
CCOC(=O)C1(NC(=O)c2cc(Br)c(Br)s2)CC1 [CMP2, reference compound]	< 40	0	0	0	0	< 30	< 40	< 30	–	–	–	–	–	–	–	–	–	–	–	–	–
O=C(NC(C(=O)O)C1CC1)c1cc(Cl)c(Cl)s1 (centres unmarked) [CMP9, reference compound]	–	< 20	0	30	–	–	–	–	< 40	–	–	–	–	–	–	–	–	–	–	–	efficacy ([3]; 125 ppm of active ingredient): 30* %; pest or weed control at 125 ppm [1]: 34%
COC(=O)C(NC(=O)c1cc(Br)c(Br)s1)C1CC1 (centres unmarked) [CMP10, reference compound]	–	< 30	–	–	–	–	0	–	–	< 30	–	–	–	–	–	–	–	–	–	–	pest or weed control at 125 ppm [1]: < 40%
COC(=O)CC[C@H](NC(=O)c1cc(Cl)c(Cl)s1)C(=O)OC [CMP12, reference compound]	–	–	–	< 20	–	–	–	–	–	–	–	–	–	–	–	–	–	–	–	–	pest or weed control at 31 ppm ([1]; 31 ppm of active ingredient): 10%
CCOC(=O)C(CO)NC(=O)c1sc(Br)c(Br)c1C (centres unmarked) [I.006]	–	–	80 to 89	–	70 to 79	90 to 100	90 to 100	90 to 100	80 to 89	80 to 89	≤ 30	2.58	≤ 30	≤ 30	90 to 100	≤ 30	≤ 30	> 2	> 2	–	inhibition at 20 ppm [9]: ≤ 30%
COC(=O)C(Cc1c[nH]cn1)NC(=O)c1sc(Br)c(Br)c1C (centres unmarked) [I.033]	–	70 to 79	–	80 to 89	90 to 100	70 to 79	–	90 to 100	–	–	≤ 30	1.5	≤ 30	≤ 30	80 to 89	≤ 30	≤ 30	–	> 2	70 to 79	inhibition at 20 ppm [8]: ≤ 30%; inhibition at 20 ppm [9]: ≤ 30%
CCOC(=O)C(CO)NC(=O)c1sc(Cl)c(Cl)c1C (centres unmarked) [I.039]	–	70 to 79	–	–	90 to 100	90 to 100	–	80 to 89	–	90 to 100	≤ 30	2.48	≤ 30	≤ 30	90 to 100	≤ 30	≤ 30	> 2	> 2	70 to 79	inhibition at 20 ppm [8]: ≤ 30%; inhibition at 20 ppm [9]: ≤ 30%
CCOC(=O)C(COC)NC(=O)c1sc(Cl)c(Cl)c1C (centres unmarked) [I.044]	–	70 to 79	–	90 to 100	90 to 100	90 to 100	90 to 100	90 to 100	90 to 100	90 to 100	≤ 30	3.37	≤ 30	≤ 30	90 to 100	≤ 30	≤ 30	> 2	> 2	80 to 89	pest or weed control at 31 ppm ([3]; Colletotrichum lindemuthianum, 144 h, 31 ppm of active ingredient, read-out: efficacy): 80 to 89%
CCSC(=O)C1(NC(=O)c2sc(Br)c(Br)c2C)CC1 [I.128]	70 to 79	–	–	–	–	90 to 100	–	90 to 100	–	–	–	3.81	–	–	90 to 100	–	–	> 2	> 2	–	–
Cc1c(C(=O)NC2(C(=O)O)CCC2)sc(Br)c1Br [I.137]	70 to 79	–	90 to 100	–	90 to 100	90 to 100	–	90 to 100	90 to 100	70 to 79	–	2.63	–	–	90 to 100	–	–	> 2	> 2	90 to 100	–
Cc1c(C(=O)NC2(C(=O)O)CCC2)sc(Cl)c1Cl [I.175]	–	70 to 79	–	70 to 79	–	90 to 100	–	–	70 to 79	90 to 100	≤ 30	2.62	≤ 30	≤ 30	–	≤ 30	≤ 30	> 2	> 2	80 to 89	inhibition at 20 ppm [8]: ≤ 30%; inhibition at 20 ppm [9]: ≤ 30%
